Experimental data: patent US11866430B2, “Naphthyridinone compounds useful as T cell activators” (priority 2018, dated 2024)
pIC50: −log10 of the molar value. Read-outs that look alike come from different tables or passages of the source.

Assays:
human DGKα = human DGKα (Homo sapiens (Human), UniProt P23743); assay: biochemical; settings: detergent/lipid micelle substrate; read-out: DGKα IC50
Experimental: (§1) The DGKα and DGKζ reactions were performed using either extruded liposome (DGKα and DGKζ LIPGLO assays) or detergent/lipid micelle substrate (DGKα and DGKζ assays). The reactions were carried out in 50 mM MOPS pH 7.5, 100 mM NaCl, 10 mM MgCl2, 1 μM CaCl2, and 1 mM DTT (assay buffer). The reactions using a detergent/lipid micelle substrate also contained 50 mM octyl B-D-glucopyranoside. […] The lipid substrate concentrations were […], 0.25 mM DAG, and 2.75 mM PC for the extruded liposome reactions.
(§2) The compound inhibition studies were carried out as follows: 50 nL droplets of each test compound (top concentration 10 mM with 11 point, 3-fold dilution series for each compound) solubilized in DMSO were transferred to wells of a white 1536 well plate (Corning 3725). A 5 mL enzyme/substrate solution at 2× final reaction concentration was prepared by combining 2.5 mL 4× enzyme solution (20 nM DGKα or DGKζ (prepared as described below) in assay buffer) and 2.5 mL of either 4× liposome or 4× detergent/lipid micelle solution (compositions described below) and incubated at room temperature for 10 minutes. Next, 1 μL 2× enzyme/substrate solution was added to wells containing the test compound and reactions were initiated with the addition of 1 μL 300 uM ATP. The reactions were allowed to proceed for 1 hr, after which 2 μL Glo Reagent (Promega V9101) was added and incubated for 40 minutes. Next, 4 μL Kinase Detection Reagent was added and incubated for 30 minutes. Luminescence was recorded using an EnVision microplate reader. […] The compounds were evaluated at 11 concentrations to determine IC50.
(§3) The detergent/lipid micelle was prepared by combining 15 g phosphatidylserine (Avanti 840035P) and 1 g diacylglycerol (800811O) and dissolving into 150 mL chloroform in a 2 L round bottom flask. Chloroform was removed under high vacuum by rotary evaporation. The resulting colorless, tacky oil was resuspended in 400 mL 50 mM MOPS pH 7.5, 100 mM NaCl, 20 mM NaF, 10 mM MgCl2, 1 μM CaCl2), 1 mM DTT, and 200 mM octyl glucoside by vigorous mixing. The lipid/detergent solution was split into 5 mL aliquots and stored at −80° C.
(§4) Human DGK-alpha-TVMV-His-pFBgate and human DCK-zeta-transcript variant-2-TVMV-His-pFBgate baculovirus samples were generated using the Bac-to-Bac baculovirus expression system (Invitrogen) according to the manufacturer's protocol. The DNA used for expression of DGK-alpha and DGK-zeta have SEQ ID NOs: 1 and 3, respectively. Baculovirus amplification was achieved using infected Sf9 cells at 1:1500 virus/cell ratios, and grown for 65 hours at 27° C. post-transfection.
(§5) The expression scale up for each protein was carried out in the Cellbag 50 L WAVE-Bioreactor System 20/50 from GE Healthcare Bioscience. 12 L of 2×10^6 cells/mL Sf9 cells (Expression System, Davis, Calif.) grown in ESF921 insect medium (Expression System) were infected with virus stock at 1:200 virus/cell ratios, and grown for 66-68 hours at 27° C. post-infection. The infected cell culture was harvested by centrifugation at 2000 rpm for 20 min 4° C. in a SORVALL® RC12BP centrifuge. The cell pellets were stored at −70° C. until purification.
(§6) Full length human DGKα and DGKζ, each expressed containing a TVMV-cleavable C-terminal Hexa-His tag sequence (SEQ ID NOs: 2 and 4, respectively) and produced as described above, were purified from Sf) baculovirus-infected insect cell paste. The cells were lysed using nitrogen cavitation method with a nitrogen bomb (Parr Instruments), and the lysates were clarified by centrifugation. […] The three steps column chromatography included nickel affinity resin capture (i.e. HisTrap FF crude, GE Healthcare), followed by size exclusion chromatography (i.e. HiLoad 26/600 Superdex 200 prep grade, GE Healthcare for DGK-alpha, and HiPrep 26/600 Sephacryl S 300_HR, GE Healthcare for DGK-zeta).

[1] = tested on: pre-activated CD4 T cells and Raji cells; assay: Raji CD4 T Cell IL2 Assay; assay type: cell-based
human DGKζ = human DGKζ (Homo sapiens (Human), UniProt Q13574); assay: DGKζ assay (detergent/lipid micelle substrate); assay type: biochemical
human DGKζ, sequence (Q13574 other isoform, or with tags, fused parts or gaps): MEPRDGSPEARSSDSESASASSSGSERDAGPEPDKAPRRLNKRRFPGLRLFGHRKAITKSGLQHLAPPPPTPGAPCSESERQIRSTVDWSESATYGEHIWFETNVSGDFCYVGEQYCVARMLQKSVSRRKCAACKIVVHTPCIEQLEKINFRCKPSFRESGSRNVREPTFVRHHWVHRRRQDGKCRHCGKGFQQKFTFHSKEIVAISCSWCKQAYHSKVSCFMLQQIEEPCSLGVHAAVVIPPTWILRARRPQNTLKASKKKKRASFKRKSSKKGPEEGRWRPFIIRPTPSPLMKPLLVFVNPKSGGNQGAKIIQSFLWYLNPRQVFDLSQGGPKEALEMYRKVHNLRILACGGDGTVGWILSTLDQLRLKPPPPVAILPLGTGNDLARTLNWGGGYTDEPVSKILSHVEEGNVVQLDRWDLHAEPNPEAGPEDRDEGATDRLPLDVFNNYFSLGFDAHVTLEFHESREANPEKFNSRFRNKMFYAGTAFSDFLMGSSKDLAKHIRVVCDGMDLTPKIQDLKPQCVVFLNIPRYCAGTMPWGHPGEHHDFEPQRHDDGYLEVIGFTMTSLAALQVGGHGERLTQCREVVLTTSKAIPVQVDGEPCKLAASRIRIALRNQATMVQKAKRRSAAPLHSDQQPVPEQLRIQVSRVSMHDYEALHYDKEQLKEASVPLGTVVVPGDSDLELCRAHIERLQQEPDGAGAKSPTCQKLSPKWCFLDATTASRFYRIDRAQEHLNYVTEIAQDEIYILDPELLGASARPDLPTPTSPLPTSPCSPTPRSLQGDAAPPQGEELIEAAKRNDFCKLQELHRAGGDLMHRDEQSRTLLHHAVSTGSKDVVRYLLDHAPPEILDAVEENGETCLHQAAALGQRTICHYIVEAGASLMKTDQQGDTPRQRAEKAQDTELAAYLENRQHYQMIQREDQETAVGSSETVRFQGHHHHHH
Experimental: as §1, §2, §3, §4, §5, §6

[2] = detergent/lipid micelle substrate, read-out: DGKζ IC50

human DGKα, sequence (P23743 other isoform, or with tags, fused parts or gaps): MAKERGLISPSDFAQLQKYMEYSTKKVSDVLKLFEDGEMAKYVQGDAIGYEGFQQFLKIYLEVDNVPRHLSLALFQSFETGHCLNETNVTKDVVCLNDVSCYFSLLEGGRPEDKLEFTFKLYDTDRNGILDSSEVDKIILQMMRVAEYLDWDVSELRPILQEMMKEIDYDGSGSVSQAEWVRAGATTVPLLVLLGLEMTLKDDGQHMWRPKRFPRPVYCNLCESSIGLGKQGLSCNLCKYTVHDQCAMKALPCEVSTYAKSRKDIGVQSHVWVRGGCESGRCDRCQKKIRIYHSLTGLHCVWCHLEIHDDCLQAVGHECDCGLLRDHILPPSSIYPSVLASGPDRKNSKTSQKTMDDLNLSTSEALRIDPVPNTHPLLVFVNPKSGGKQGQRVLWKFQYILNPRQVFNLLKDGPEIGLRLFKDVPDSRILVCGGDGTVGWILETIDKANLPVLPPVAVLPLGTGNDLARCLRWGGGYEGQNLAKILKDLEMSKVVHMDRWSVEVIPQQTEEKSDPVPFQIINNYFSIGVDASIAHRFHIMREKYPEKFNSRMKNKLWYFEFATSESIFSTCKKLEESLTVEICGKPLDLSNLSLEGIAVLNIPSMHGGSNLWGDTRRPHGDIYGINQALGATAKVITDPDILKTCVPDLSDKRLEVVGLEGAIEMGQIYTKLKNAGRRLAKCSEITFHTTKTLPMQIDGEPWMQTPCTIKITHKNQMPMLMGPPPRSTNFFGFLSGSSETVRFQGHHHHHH

Cc1cccc(C(c2ccc(F)cc2)N2CCN(c3c([N+](=O)[O-])c(=O)n(C)c4ccc(Br)nc34)CC2)c1O (single isomer, unassigned) [Example 85, 6-bromo-4-(4-((4-fluorophenyl)(2-hydroxy-3-methylphenyl)methyl)piperazin-1-yl)-1-methyl-3-nitro-1,5-naphthyridin-2(1H)-one]
pIC50 (human DGKα): 5.12 | pIC50 ([1]; Homo sapiens, Raji): 7.00 | pIC50 (human DGKζ; [2]): 6.11

COc1cccc(O)c1CN1CCN(c2c(C#N)c(=O)n(C)c3ccc(Cl)nc23)CC1 [Example 264, 6-chloro-4-{4-[(2-hydroxy-6-methoxyphenyl)methyl]piperazin-1-yl}-1-methyl-2-oxo-1,2-dihydro-1,5-naphthyridine-3-carbonitrile]
pIC50 (human DGKα): 6.21 | pIC50 ([1]; Homo sapiens, Raji): 7.44 | pIC50 (human DGKζ; [2]): < 3.62

COc1cc(F)ccc1C(c1ccc(F)cc1)N1CCN(c2c([N+](=O)[O-])c(=O)n(C)c3ccc(C#N)nc23)CC1 (racemic) [Example 123, 8-(4-((4-fluoro-2-methoxyphenyl)(4-fluorophenyl)methyl)piperazin-1-yl)-5-methyl-7-nitro-6-oxo-5,6-dihydro-1,5-naphthyridine-2-carbonitrile]
pIC50 (human DGKα): 5.64

Cn1c(=O)c([N+](=O)[O-])c(N2CCN(C(c3ccc(F)cc3)c3cccc(F)c3O)CC2)c2nc(Br)ccc21 (single isomer, unassigned) [Example 76, 6-bromo-4-(4-((3-fluoro-2-hydroxyphenyl)(4-fluorophenyl)methyl)piperazin-1-yl)-1-methyl-3-nitro-1,5-naphthyridin-2(1H)-one]
pIC50 (human DGKα): 5.26 | pIC50 [1]: 7.17 | pIC50 (human DGKζ; DGKζ IC50, detergent/lipid micelle substrate): 5.60

C=CCOc1cc(F)cc2c1C(N1CCN(c3c(C#N)c(=O)n(C)c4ccc(Cl)nc34)CC1)CC2 (stereo not drawn) [Example 200, 4-(4-(7-(allyloxy)-5-fluoro-2,3-dihydro-1H-inden-1-yl)piperazin-1-yl)-6-chloro-1-methyl-2-oxo-1,2-dihydro-1,5-naphthyridine-3-carbonitrile]
pIC50 (human DGKα): 4.62 | pIC50 ([1]; Homo sapiens, Raji): 5.80 | pIC50 (human DGKζ; [2]): < 3.62

C#CCn1c(=O)c(C#N)c(N2CCN(C(c3ccc(F)cc3)c3ccccc3O)CC2)c2nc(Br)ccc21 (single isomer, unassigned) [Example 106, 6-bromo-4-(4-((4-fluorophenyl)(2-hydroxyphenyl)methyl)piperazin-1-yl)-2-oxo-1-(prop-2-yn-1-yl)-1,2-dihydro-1,5-naphthyridine-3-carbonitrile]
pIC50 (human DGKα): 6.02 | pIC50 ([1]; Homo sapiens, Raji): 8.62 | pIC50 (human DGKζ; [2]): 5.70

COc1ccccc1C(c1ccc(F)cc1)N1CCN(c2c(C#N)c(=O)n(CC3CC3)c3ccc(Br)nc23)CC1 (single isomer, unassigned) [Example 160, 6-bromo-1-(cyclopropylmethyl)-4-(4-((4-fluorophenyl)(2-methoxyphenyl)methyl)piperazin-1-yl)-2-oxo-1,2-dihydro-1,5-naphthyridine-3-carbonitrile]
pIC50 (human DGKα): 3.74 | pIC50 [1]: 5.54 | pIC50 (human DGKζ; [2]): 3.80

Cn1c(=O)c([N+](=O)[O-])c(N2CCN(C(c3ccc(F)cc3)c3ccc(F)cc3)CC2)c2nc(Br)ccc21 [Example 53, 4-(4-(bis(4-fluorophenyl)methyl)piperazin-1-yl)-6-bromo-1-methyl-3-nitro-1,5-naphthyridin-2(1H)-one]
pIC50 (human DGKα): 5.82 | pIC50 ([1]; Homo sapiens, Raji): 7.37 | pIC50 (human DGKζ; [2]): 4.80

Cn1c(=O)c(C#N)c(N2CCN(C(c3ccc(F)cc3)c3ccccc3O)CC2)c2nc(Br)ccc21 (single isomer, unassigned) [Example 10, 6-bromo-4-{4-[(4-fluorophenyl)(2-hydroxyphenyl)methyl]piperazin-1-yl}-1-methyl-2-oxo-1,2-dihydro-1,5-naphthyridine-3-carbonitrile]
pIC50 [1]: 8.52

Cn1c(=O)c(C#N)c(N2CCN(C(c3ccc(F)cc3)c3ccccc3O)CC2)c2nc(Br)ccc21 (single isomer, unassigned) [Example 9, 6-bromo-4-{4-[(4-fluorophenyl)(2-hydroxyphenyl)methyl]piperazin-1-yl}-1-methyl-2-oxo-1,2-dihydro-1,5-naphthyridine-3-carbonitrile]
pIC50 [1]: < 4.00

C#CCn1c(=O)c([N+](=O)[O-])c(N2CCN(C(c3ccc(F)cc3)c3ccc(F)cc3OC)CC2)c2nc(C#N)ccc21 (racemic) [Example 126, 8-(4-((4-fluoro-2-methoxyphenyl)(4-fluorophenyl)methyl)piperazin-1-yl)-7-nitro-6-oxo-5-(prop-2-yn-1-yl)-5,6-dihydro-1,5-naphthyridine-2-carbonitrile]
pIC50 (human DGKα): 5.21 | pIC50 (human DGKζ; [2]): 6.48

C#CCn1c(=O)c(C#N)c(N2CCN(C(c3ccc(F)cc3)c3ccccc3O)CC2)c2nc(Br)ccc21 (racemic) [Example 105, 6-bromo-4-(4-((4-fluorophenyl)(2-hydroxyphenyl)methyl)piperazin-1-yl)-2-oxo-1-(prop-2-yn-1-yl)-1,2-dihydro-1,5-naphthyridine-3-carbonitrile]
pIC50 (human DGKα): 6.24 | pIC50 (human DGKζ; [2]): 5.60

Cn1c(=O)c(C#N)c(N2CCN(C(c3ccc(F)cc3)c3ccccc3O)CC2)c2nc(Br)ccc21 (racemic) [Example 8, 6-bromo-4-{4-[(4-fluorophenyl)(2-hydroxyphenyl)methyl]piperazin-1-yl}-1-methyl-2-oxo-1,2-dihydro-1,5-naphthyridine-3-carbonitrile]
pIC50 ([1]; Homo sapiens, Raji): 7.04

C#CCn1c(=O)c([N+](=O)[O-])c(N2CCN(C(c3ccc(F)cc3)c3ccc(F)cc3O)CC2)c2nc(C#N)ccc21 (racemic) [Example 119, 8-(4-((4-fluoro-2-hydroxyphenyl)(4-fluorophenyl)methyl)piperazin-1-yl)-7-nitro-6-oxo-5-(prop-2-yn-1-yl)-5,6-dihydro-1,5-naphthyridine-2-carbonitrile]
pIC50 (human DGKα): 6.01 | pIC50 (human DGKζ; [2]): 6.72

COc1ccc(CN2CCN(c3c(C#N)c(=O)n(C)c4ccc(Cl)nc34)CC2)c(O)c1 [Example 301, 6-chloro-4-{4-[(2-hydroxy-4-methoxyphenyl)methyl]piperazin-1-yl}-1-methyl-2-oxo-1,2-dihydro-1,5-naphthyridine-3-carbonitrile]
pIC50 (human DGKζ; [2]): < 3.62

Cn1c(=O)c(C#N)c(N2CCN(C(c3ccc(F)cc3)c3ccc(F)cc3O)CC2)c2nc(Cl)ccc21 (stereo not drawn) [Example 222, 6-chloro-4-(4-((4-fluoro-2-hydroxyphenyl)(4-fluorophenyl)methyl)piperazin-1-yl)-1-methyl-2-oxo-1,2-dihydro-1,5-naphthyridine-3-carbonitrile]
pIC50 (human DGKα): 7.08 | pIC50 ([1]; Homo sapiens, Raji): 7.17

Cn1c(=O)c(C#N)c(N2CCN(C3CCc4cc(F)cc(O)c43)CC2)c2nc(Cl)ccc21 (stereo not drawn) [Example 201, 6-chloro-4-(4-(5-fluoro-7-hydroxy-2,3-dihydro-1H-inden-1-yl)piperazin-1-yl)-1-methyl-2-oxo-1,2-dihydro-1,5-naphthyridine-3-carbonitrile]
pIC50 ([1]; Homo sapiens, Raji): 4.66

Cc1ccc2c(n1)c(N1CCN(C(c3ccc(F)cc3)c3ccc(F)cc3)CC1)c(F)c(=O)n2C [Example 234, 4-(4-(bis(4-fluorophenyl)methyl)piperazin-1-yl)-3-fluoro-1,6-dimethyl-1,5-naphthyridin-2(1H)-one]
pIC50 (human DGKα): 4.80 | pIC50 ([1]; Homo sapiens, Raji): 6.89

Cn1c(=O)c(C#N)c(N2CCN(Cc3cccc(Br)c3O)CC2)c2nc(Br)ccc21 [Example 380, 6-bromo-4-{4-[(3-bromo-2-hydroxyphenyl)methyl]piperazin-1-yl}-1-methyl-2-oxo-1,2-dihydro-1,5-naphthyridine-3-carbonitrile]
pIC50 (human DGKα): 6.08 | pIC50 (human DGKζ; [2]): < 3.62
